# Experiment: Preservation stability of the coating liquid
# Format: physicochemical
# Conditions: coating liquid stored for 2 months shielded from light at 0° C.; appearance and GPC
# Method: The preservation stability of the coating liquid was evaluated on a scale of A to E on the basis of the state of the coating liquid that was stored for 2 months under a condition where the coating liquid was shielded from light at 0° C.
# A: No visual change in the appearance of the coating liquid was confirmed. A GPC analysis of the coating liquid confirmed that the change in the composition of the coating liquid was 1% or less.
# B: No visual change in the appearance of the coating liquid was confirmed. A GPC analysis of the coating liquid confirmed that the change in the composition of the coating liquid was 2% or less.
# C: A visual change in the appearance of the coating liquid was confirmed; a trace amount of insoluble components were confirmed, or a GPC analysis of the coating liquid confirmed that the change in the composition of the coating liquid was 3% or less.
# D: A visual change in the appearance of the coating liquid was confirmed; insoluble components were confirmed. The ratio of the weight of the insoluble components to the total solid content was 5% or less.
# E: A large amount of insoluble components were visually confirmed. The ratio of the weight of the insoluble components to the total solid content was 5% or more.
row,Structure (SMILES),Preservation stability
1,C=CC(=O)OCCCCCCOc1ccc(CCC(=O)Oc2ccc(OC(=O)CCc3ccc(OCCCCCCOC(=O)C=C)cc3)c(/C=N/Nc3nc4ccccc4s3)c2)cc1 [1-c-51],A (No visual change in the appearance of the coating liquid was confirmed. A GPC analysis of the coating liquid confirmed that the change in the composition of the coating liquid was 1% or less.)
2,C=CC(=O)OCCCOc1ccc(CCC(=O)Oc2ccc(OC(=O)CCc3ccc(OCCCOC(=O)C=C)c(OC)c3)c(/C=N/Nc3nc4ccccc4s3)c2)cc1OC [1-c-52],A (No visual change in the appearance of the coating liquid was confirmed. A GPC analysis of the coating liquid confirmed that the change in the composition of the coating liquid was 1% or less.)
3,C=CC(=O)OCCCOc1ccc(C#Cc2ccc(C#Cc3ccc(OCCCOC(=O)C=C)cc3)c(/C=N/Nc3nc4ccccc4s3)c2)cc1 [1-c-67],B (No visual change in the appearance of the coating liquid was confirmed. A GPC analysis of the coating liquid confirmed that the change in the composition of the coating liquid was 2% or less.)
4,C=CC(=O)OCCCCCCOc1ccc(C#Cc2ccc(C#Cc3ccc(OCCCCCCOC(=O)C=C)cc3)c(/C=N/Nc3nc4ccccc4s3)c2)cc1 [1-c-68],B (No visual change in the appearance of the coating liquid was confirmed. A GPC analysis of the coating liquid confirmed that the change in the composition of the coating liquid was 2% or less.)
5,C=CC(=O)OCCCCCCOc1ccc(OCCOc2ccc(OCCOc3ccc(OCCCCCCOC(=O)C=C)cc3)c(/C=N/Nc3nc4ccccc4s3)c2)cc1 [1-c-80],A (No visual change in the appearance of the coating liquid was confirmed. A GPC analysis of the coating liquid confirmed that the change in the composition of the coating liquid was 1% or less.)
6,C=CC(=O)Oc1ccc(C(=O)OCCc2ccc(OC(=O)c3ccc(OC(=O)C=C)cc3)c(/C=N/Nc3nc4ccccc4s3)c2)cc1 [1-cg-36],B (No visual change in the appearance of the coating liquid was confirmed. A GPC analysis of the coating liquid confirmed that the change in the composition of the coating liquid was 2% or less.)
7,C=CC(=O)Oc1ccc(C(=O)OCCc2ccc(CCOC(=O)c3ccc(OC(=O)C=C)cc3)c(/C=N/Nc3nc4ccccc4s3)c2)cc1 [1-cg-37],B (No visual change in the appearance of the coating liquid was confirmed. A GPC analysis of the coating liquid confirmed that the change in the composition of the coating liquid was 2% or less.)
8,C=CC(=O)OCCCCCCOc1ccc(C(=O)Oc2ccc(C(=O)OCCc3ccc(OC(=O)c4ccc(OC(=O)c5ccc(OCCCCCCOC(=O)C=C)cc5)cc4)c(/C=N/Nc4nc5ccccc5s4)c3)cc2)cc1 [1-ch-79],A (No visual change in the appearance of the coating liquid was confirmed. A GPC analysis of the coating liquid confirmed that the change in the composition of the coating liquid was 1% or less.)
9,C=CC(=O)OCCCCOC(=O)/C=C/c1ccc(CCC(=O)Oc2ccc(OC(=O)CCc3ccc(/C=C/C(=O)OCCCCOC(=O)C=C)cc3)c(/C=N/Nc3nc4ccccc4s3)c2)cc1 [1-cj-59],A (No visual change in the appearance of the coating liquid was confirmed. A GPC analysis of the coating liquid confirmed that the change in the composition of the coating liquid was 1% or less.)
10,C=CC(=O)OCCCCCCOC(=O)/C=C/c1ccc(CCC(=O)Oc2ccc(OC(=O)CCc3ccc(/C=C/C(=O)OCCCCCCOC(=O)C=C)cc3)c(/C=N/Nc3nc4ccccc4s3)c2)cc1 [1-cj-60],A (No visual change in the appearance of the coating liquid was confirmed. A GPC analysis of the coating liquid confirmed that the change in the composition of the coating liquid was 1% or less.)
11,C=CC(=O)OCCCOC(=O)/C=C/c1ccc(CCC(=O)Oc2ccc(OC(=O)CCc3ccc(/C=C/C(=O)OCCCOC(=O)C=C)cc3)c(/C=N/Nc3nc4ccccc4s3)c2)cc1 [1-cj-63],A (No visual change in the appearance of the coating liquid was confirmed. A GPC analysis of the coating liquid confirmed that the change in the composition of the coating liquid was 1% or less.)
12,C=CC(=O)OCCCCCCOc1ccc(OC(=O)C2CCC(COc3ccc(OCC4CCC(C(=O)Oc5ccc(OCCCCCCOC(=O)C=C)cc5)CC4)c(/C=N/Nc4nc5ccccc5s4)c3)CC2)cc1 (stereo not shown) [1-cm-88],A (No visual change in the appearance of the coating liquid was confirmed. A GPC analysis of the coating liquid confirmed that the change in the composition of the coating liquid was 1% or less.)
13,C=CC(=O)OCCCOc1ccc(OC(=O)C2CCC(COc3ccc(OCC4CCC(C(=O)Oc5ccc(OCCCOC(=O)C=C)cc5)CC4)c(/C=N/Nc4nc5ccccc5s4)c3)CC2)cc1 (stereo not shown) [1-cm-89],A (No visual change in the appearance of the coating liquid was confirmed. A GPC analysis of the coating liquid confirmed that the change in the composition of the coating liquid was 1% or less.)
14,C=CC(=O)OCCOCCOCCOc1ccc(OC(=O)C2CCC(COc3ccc(OCC4CCC(C(=O)Oc5ccc(OCCOCCOCCOC(=O)C=C)cc5)CC4)c(/C=N/Nc4nc5ccccc5s4)c3)CC2)cc1 (stereo not shown) [1-cm-105],A (No visual change in the appearance of the coating liquid was confirmed. A GPC analysis of the coating liquid confirmed that the change in the composition of the coating liquid was 1% or less.)
15,C=CC(=O)OCCOCCOCCOc1ccc(OC(=O)C2CCC(COc3ccc(OCC4CCC(C(=O)Oc5ccc(OCCOCCOCCOC(=O)C=C)cc5)CC4)c(/C=N/N(CCCCCC)c4nc5ccccc5s4)c3)CC2)cc1 (stereo not shown) [1-cmn-90],A (No visual change in the appearance of the coating liquid was confirmed. A GPC analysis of the coating liquid confirmed that the change in the composition of the coating liquid was 1% or less.)
16,C=CC(=O)OCCCCCCOc1ccc(OC(=O)C2CCC(COc3ccc(OCC4CCC(C(=O)Oc5ccc(OCCCCCCOC(=O)C=C)cc5)CC4)c(/C=N/N(CCOCCOC)c4nc5ccccc5s4)c3)CC2)cc1 (stereo not shown) [1-cmn-91],A (No visual change in the appearance of the coating liquid was confirmed. A GPC analysis of the coating liquid confirmed that the change in the composition of the coating liquid was 1% or less.)
17,C=CC(=O)OCCCOc1ccc(OC(=O)C2CCC(COc3ccc(OCC4CCC(C(=O)Oc5ccc(OCCCOC(=O)C=C)cc5)CC4)c(/C=N/N(CCOCCOC)c4nc5ccccc5s4)c3)CC2)cc1 (stereo not shown) [1-cmn-92],A (No visual change in the appearance of the coating liquid was confirmed. A GPC analysis of the coating liquid confirmed that the change in the composition of the coating liquid was 1% or less.)
18,C=CC(=O)OCCCCCCOc1ccc(OC(=O)C2CCC(COc3ccc(OCC4CCC(C(=O)Oc5ccc(OCCCCCCOC(=O)C=C)cc5)CC4)c(/C=N/N(CCOC(=O)C=C)c4nc5ccccc5s4)c3)CC2)cc1 (stereo not shown) [1-cmn-93],A (No visual change in the appearance of the coating liquid was confirmed. A GPC analysis of the coating liquid confirmed that the change in the composition of the coating liquid was 1% or less.)
19,C=CC(=O)OCCCCCCOc1ccc(OC(=O)C2CCC(COc3ccc(OCC4CCC(C(=O)Oc5ccc(OCCCCCCOC(=O)C=C)cc5)CC4)c(/C=N/N(CCOCCOCCOC(=O)C=C)c4nc5ccccc5s4)c3)CC2)cc1 (stereo not shown) [1-cmn-94],A (No visual change in the appearance of the coating liquid was confirmed. A GPC analysis of the coating liquid confirmed that the change in the composition of the coating liquid was 1% or less.)
